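Briefly, cells in 96-well plates were exposed to five compound concentrations for 48 h, and endpoints were estimated by linear interpolation. At the GI50, growth is halved.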 Activity calls are given as the source filed them. No stated cut-off is given here; in the data, active = GI50 up to about 1.1 µM and inactive = higher.
Key:
Assay in all cases: NCI anticancer screen, dose series, 48 h
786-0 = system: 786-0
A498 = system: A498
A549 = system: A549
ACHN = system: ACHN
CAKI-1 = system: CAKI-1
CCRF-CEM = system: CCRF-CEM
COLO 205 = system: COLO 205
DLD-1 = system: DLD-1
DMS-114 = system: DMS-114
DMS-273 = system: DMS-273
EKVX = system: EKVX
HCC 2998 = system: HCC 2998
HCT-116 = system: HCT-116
HCT-15 = system: HCT-15
HL-60 = system: HL-60
HOP-18 = system: HOP-18
HOP-62 = system: HOP-62
HOP-92 = system: HOP-92
HT-29 = system: HT-29
IGROV-1 = system: IGROV-1
K562 = system: K562
KM-20L2 = system: KM-20L2
KM12 = system: KM12
LOX IMVI = system: LOX IMVI
LXFL 529 = system: LXFL 529
M14 = system: M14
M19-MEL = system: M19-MEL
MOLT-4 = system: MOLT-4
Malme-3M = system: Malme-3M
NCI-H23 = system: NCI-H23
NCI-H460 = system: NCI-H460
NCI-H522 = system: NCI-H522
OVCAR-3 = system: OVCAR-3
OVCAR-4 = system: OVCAR-4
OVCAR-5 = system: OVCAR-5
OVCAR-8 = system: OVCAR-8
SF-268 = system: SF-268
SF-295 = system: SF-295
SF-539 = system: SF-539
SK-MEL-28 = system: SK-MEL-28
SK-MEL-2 = system: SK-MEL-2
SK-MEL-5 = system: SK-MEL-5
SK-OV-3 = system: SK-OV-3
SN12C = system: SN12C
SNB-19 = system: SNB-19
SNB-75 = system: SNB-75
SNB-78 = system: SNB-78
SR = system: SR
SW-620 = system: SW-620
TK-10 = system: TK-10
U-251 = system: U-251
UACC-257 = system: UACC-257
UACC-62 = system: UACC-62
UO-31 = system: UO-31
XF498 = system: XF498
NCI-H226 = system: NCI-H226
RPMI-8226 = system: RPMI-8226
RXF 393 = system: RXF 393

Cc1ccc2c(c1)NC(=O)C(N=[N+]=[N-])(c1ccccc1)C2=O (configuration not stated)
GI50 (786-0): 30.5 µM (inactive)
GI50 (A498): 39.9 µM (inactive)
GI50 (A549): 50.5 µM (inactive)
GI50 (ACHN): 41.1 µM (inactive)
GI50 (CAKI-1): 24.4 µM (inactive)
GI50 (CCRF-CEM): 28.4 µM (inactive)
GI50 (COLO 205): 14.1 µM (inactive)
GI50 (DLD-1): 43 µM (inactive)
GI50 (DMS-114): 34.3 µM (inactive)
GI50 (DMS-273): 12.3 µM (inactive)
GI50 (EKVX): 30.3 µM (inactive)
GI50 (HCC 2998): > 100 µM (inactive)
GI50 (HCT-116): 35.2 µM (inactive)
GI50 (HCT-15): 21.5 µM
GI50 (HL-60): 16.4 µM (inactive)
GI50 (HOP-18): 26.1 µM (inactive)
GI50 (HOP-62): 65.9 µM (inactive)
GI50 (HOP-92): 24.5 µM (inactive)
GI50 (HT-29): 20 µM (inactive)
GI50 (IGROV-1): 32.8 µM (inactive)
GI50 (K562): 21 µM (inactive)
GI50 (KM-20L2): 30.3 µM (inactive)
GI50 (KM12): 15.2 µM (inactive)
GI50 (LOX IMVI): 18.3 µM (inactive)
GI50 (LXFL 529): 24 µM (inactive)
GI50 (M14): 17 µM (inactive)
GI50 (M19-MEL): 19.7 µM (inactive)
GI50 (MOLT-4): 24.7 µM (inactive)
GI50 (Malme-3M): 32.5 µM (inactive)
GI50 (NCI-H23): 20 µM (inactive)
GI50 (NCI-H460): 23.6 µM (inactive)
GI50 (NCI-H522): 20.8 µM (inactive)
GI50 (OVCAR-3): 18.9 µM (inactive)
GI50 (OVCAR-4): 44.2 µM (inactive)
GI50 (OVCAR-5): 33 µM (inactive)
GI50 (OVCAR-8): 27.2 µM (inactive)
GI50 (SF-268): 45.2 µM (inactive)
GI50 (SF-295): 25.8 µM (inactive)
GI50 (SF-539): 35.5 µM (inactive)
GI50 (SK-MEL-28): 45.1 µM (inactive)
GI50 (SK-MEL-2): 17.9 µM (inactive)
GI50 (SK-MEL-5): 23.1 µM (inactive)
GI50 (SK-OV-3): 33.9 µM (inactive)
GI50 (SN12C): 21.1 µM (inactive)
GI50 (SNB-19): 30.6 µM (inactive)
GI50 (SNB-75): 33.4 µM (inactive)
GI50 (SNB-78): 28.1 µM (inactive)
GI50 (SR): 20.7 µM (inactive)
GI50 (SW-620): 34.8 µM (inactive)
GI50 (TK-10): 34.4 µM (inactive)
GI50 (U-251): 25.8 µM (inactive)
GI50 (UACC-257): 29.5 µM (inactive)
GI50 (UACC-62): 22.2 µM (inactive)
GI50 (UO-31): 29 µM (inactive)
GI50 (XF498): 24.7 µM (inactive)

COC(=O)[C@@]12C3=NO[C@]1(C(=O)OC)C(O[Si](C)(C)C(C)(C)C)[C@@H](OC(C)=O)[C@@H](OC(C)=O)[C@@H]2[C@@H](OCc1ccccc1)CC3 (some centres not stated)
GI50 (786-0): 14.2 µM (inactive)
GI50 (A498): > 85.3 µM (inactive)
GI50 (A549): 28.3 µM (inactive)
GI50 (ACHN): 4.44 µM (inactive)
GI50 (CAKI-1): 3.8 µM (inactive)
GI50 (CCRF-CEM): 5.45 µM (inactive)
GI50 (COLO 205): > 100 µM (inactive)
GI50 (DLD-1): > 30.5 µM (inactive)
GI50 (DMS-114): 6.35 µM (inactive)
GI50 (DMS-273): 6.05 µM (inactive)
GI50 (EKVX): > 27.7 µM (inactive)
GI50 (HCC 2998): > 100 µM (inactive)
GI50 (HCT-116): 5.07 µM (inactive)
GI50 (HCT-15): > 30.9 µM
GI50 (HL-60): 3.86 µM (inactive)
GI50 (HOP-18): > 100 µM (inactive)
GI50 (HOP-62): > 100 µM (inactive)
GI50 (HOP-92): 2.22 µM (inactive)
GI50 (HT-29): > 72.3 µM (inactive)
GI50 (IGROV-1): > 29 µM (inactive)
GI50 (K562): 5.26 µM (inactive)
GI50 (KM-20L2): > 100 µM (inactive)
GI50 (KM12): > 100 µM (inactive)
GI50 (LOX IMVI): 8.81 µM (inactive)
GI50 (LXFL 529): 4.45 µM (inactive)
GI50 (M14): > 100 µM (inactive)
GI50 (M19-MEL): > 100 µM (inactive)
GI50 (MOLT-4): 5.14 µM (inactive)
GI50 (Malme-3M): 7.28 µM (inactive)
GI50 (NCI-H226): 14.9 µM (inactive)
GI50 (NCI-H23): 4.9 µM (inactive)
GI50 (NCI-H460): 3.59 µM (inactive)
GI50 (NCI-H522): 3.86 µM (inactive)
GI50 (OVCAR-3): 13.5 µM (inactive)
GI50 (OVCAR-4): 4.82 µM (inactive)
GI50 (OVCAR-5): 8.79 µM (inactive)
GI50 (OVCAR-8): > 61.1 µM (inactive)
GI50 (RPMI-8226): 4.42 µM (inactive)
GI50 (RXF 393): 3.06 µM (inactive)
GI50 (SF-268): 5.79 µM (inactive)
GI50 (SF-295): 5.68 µM (inactive)
GI50 (SF-539): > 100 µM (inactive)
GI50 (SK-MEL-28): > 23.8 µM (inactive)
GI50 (SK-MEL-2): 8.26 µM (inactive)
GI50 (SK-MEL-5): 4.16 µM (inactive)
GI50 (SK-OV-3): > 100 µM (inactive)
GI50 (SN12C): > 100 µM (inactive)
GI50 (SNB-19): 8.81 µM (inactive)
GI50 (SNB-75): 8.63 µM (inactive)
GI50 (SNB-78): > 96.2 µM (inactive)
GI50 (SW-620): > 100 µM (inactive)
GI50 (TK-10): > 100 µM (inactive)
GI50 (U-251): 8.99 µM (inactive)
GI50 (UACC-257): 17.4 µM (inactive)
GI50 (UACC-62): > 43.6 µM (inactive)
GI50 (UO-31): > 19.9 µM (inactive)
GI50 (XF498): 15.8 µM (inactive)
